# Data taken from patent publication US20170168056A1, “METHODS AND COMPOSITIONS FOR DETECTING AND MODULATING CANCER CELLS” (Massachusetts Institute of Technology, priority 2015, published 2017).
# Where a chain is given by its changes, count along the chain named.
# B1: sh-1C: paired control shRNA for sh-1, SEQ ID NO. 7 (nucleic acid)
# guide: TGCTGTTGACAGTGAGCGAATGATTCCTTAAACAGCCCAATAGTGAAGCCACAGATGTATTGGGCTGTTTAAGGAATCATGTGCCTACTGCCTCGGA
# B2: sh-1: shRNA targeting the 11a insertion of Mena^11a, SEQ ID NO. 6 (nucleic acid)
# guide: B1 guide with A19C, C27A, A31C, C36A, G64T, T69G, G73T, G81A
# B3: sh-2C: paired control shRNA for sh-2, SEQ ID NO. 9 (nucleic acid)
# guide: TGCTGTTGACAGTGAGCGAAACAGGTCATAGGATTAATTATAGTGAAGCCACAGATGTATAATTAATCCTATGACCTGTTCTGCCTACTGCCTCGGA
# B4: sh-2: shRNA targeting the 11a insertion of Mena^11a, SEQ ID NO. 8 (nucleic acid)
# guide: B3 guide with A19C, A28C, G31T, A36C, T64G, C69A, T72G, C81A
# What was measured:
# [1] = system: MDA-MB-231 cells; test: Cell viability assay (Prestoblue) in MDA-MB-231 cells expressing GFP, GFP-Mena or GFP-Mena^INV; conditions: 72 h; for effect of Mena or Mena^INV expression on fraction of viable cells / response to drug: range of concentrations
# Experimental: Cell viability assays were performed in a 96-well plate. 5,000 cells were plated per well and treated with drug 24 hours later. Cell viability was assayed 72 hours later using the PrestoBlue Cell Viability Reagent (Life Technologies), according to manufacturer's protocol. Fluorescence was measured and normalized to cells exposed to vehicle. The activity area was calculated from doseresponse plots using Matlab. All measurements were repeated in triplicate.
# [2] = system: MDA-MB-231 xenograft tumors; test: Xenograft tumor growth in NOD-SCID mice with chemotherapy treatment; format: in vivo, mouse; conditions: three doses Taxol/paclitaxel 10 mg/kg or two doses Doxorubicin 5 mg/kg
# Experimental: Mena or Mena^INV expression blocks Taxol efficacy on tumors in treated animals. Mice with xenograft tumors were generated by injection of MDA-MB-231 cells expressing GFP (Control), GFP-Mena (Mena) or GFP-Mena^INV (Mena^INV) into the mammary fat pads of NOD-SCID mice. […] Tumor size was measured before and after treatment. […] These in vivo findings are consistent with the results obtained in the in vitro data, and indicate that Men/Mena^INV promotes resistance to Taxol as judged by tumor growth.
# Xenograft tumor generation and in vivo chemotherapy treatment. All animal experiments were approved by the MIT Division of Comparative Medicine. 2 million MDA-MB-231 cells expressing different MENA isoforms (in PBS and 20% collagen I) were injected into the 4th right mammary fat pad of six week-old female NOD-SCID mice (Taconic). When the tumors reached 1 cm in diameter, mice were treated every five days with either three doses of paclitaxel at 10 mg/kg in 1% DMSO, 3% PEG (MW 400), 1% Tween 80 in PBS by intra-peritoneal injection. In parallel, mice were treated with only in 1% DMSO, 3% PEG (MW 400), 1% Tween 80 in PBS as a vehicle control. One day after the last injection, tumors were measured and mice were use for intravital imaging and then sacrificed. Their tumors and lungs were fixed in 10% formalin overnight, their bone marrow were collected using PBS and cultured in DMEM with 10% fetal bovine serum. The number of tumor cell colonies in cultured bone morrow was counted 1 month after collection. The number of metastasis in each lobe of the lung were counted from lung H&E stained sections visualized by light microscopy and counted by two blinded individuals. Each tumor group contained 3-5 mice.
# MENA isoform expression is associated with increased tumor growth in vivo during paclitaxel treatment. Whether MENA-associated paclitaxel resistance could also be observed in vivo was examined. Xenograft tumors were generated by injecting MDA-MB-231 cells expressing MENA isoforms into the mammary fat pads of NOD-SCID mice. Mice were treated with paclitaxel once tumors reached 1 cm in diameter (FIG. 30A).
# [3] = system: microtubules (MT); test: Immunofluorescence ratio of Glu-MT (stable) to Tyr-MT (dynamic); format: cell-based, human; conditions: 231-MENA^INV cells, 24 hours
# Experimental: Immunofluorescence. Glass bottom dishes (Mattek) were coated with Collagen at 0.1 mg/mL diluted in PBS and 50 μg/mL FN for 1 hour at 37° C. Cells were plated for 1 hour, and then treated with paclitaxel alone or in combination with MEKi for 24 hours. Cells were fixed for 20 minutes in 4% paraformaldehyde in PHEM buffer with 0.1% Gluteraldehyde, and then quenched with sodium borohydrate for 5 minutes. Cells were blocked with 2% BSA in TBS-0.1%TritonX-100 for 30 minutes, and incubated with primary antibodies and then secondary antibodies for 1 hour each, at room temperature. Z series of images were taken on an Applied Precision DeltaVision microscope using Softworx acquisition, an Olympus 60×1.4 NA plan apo objective and a Photometrics CoolSNAP HQ camera. Images were deconvolved using Deltavision Softworx software and objective specific point spread function. Images were analyzed with ImageJ, where the whole cell intensity levels of Tyr- or Glu-MT was measured. Images are pooled from at least 3 independent experiments.
# Paclitaxel promotes cell death by increasing the stability of MTs, and pathways driving increased MT dynamics are known to promote resistance to taxanes. Therefore, MT structure and dynamics in MENA isoform expressing cells was examined during paclitaxel treatment. […] Post-translational modification of MTs can regulate their dynamics, and antibodies that detect such modifications can be used to infer the relative dynamics of MT populations; in particular, MT tyrosination indicates a dynamic MT state, while de-tyrosination of MTs is associated with increased stability. The relative abundance of stable (Glu-MT) vs. dynamic (Tyr-MT) MTs was measured in individual cells by immunofluorescence with anti-Glu-MT and anti-Tyr-MT antibodies (FIGS. 37A, 37B).
# (§1) The MAPK signaling cascade is among the key pathways known to interact with MTs. Both ERK1/2 interact with MTs; MT stabilization by paclitaxel increases ERK phosphorylation and, in turn, ERK pathway activation increases MT dynamics.
# [4] = system: ERK, Akt; test: Western blot for pERK Y204, ERK, pAkt473 and Akt; format: cell-based, human; conditions: 231-MENA^INV cells; 10 nM paclitaxel, 0.1 μM MEKi, 72 hours
# Experimental: (§2) Western blot. Cells were lysed in 25 mM Tris, 150 mM NaCl, 10% glycerol, 1% NP 40 and […] EDTA with a protease Mini-complete protease inhibitors (Roche) and a phosphatase inhibitor cocktail (PhosSTOP, Roche) at 4° C. for 20 minutes. Protein lysates were separated by SDS-PAGE, transferred to a nitrocellulose membrane and blocked with Odyssey Blocking Buffer (LiCor). Membranes were incubated with primary antibody overnight at 4° C. and Licor secondary antibodies at room temperature for 1 hour. Protein level intensity was measured with Image J.
# as §1
# [5] = system: MDA-MB-231 cells; test: Proliferation assay (cell count) with combinations of paclitaxel and MEKi; format: cell-based, human
# [6] = system: Mena; test: Mena expression in cultured cells after taxane treatment (Western blot, FACS of GFP); format: cell-based, human; conditions: MDA-MB-231 populations expressing GFP, GFP-MENA or GFP-MENA^INV
# Experimental: Taxol treatment induces increased Mena protein expression in vitro and in vivo. As high level of Mena or Mena^INV expression correlated with low response to Taxo, we hypothesized that Taxol treatment might affect Mena expression. […]. After 72 h of treatment with the drug, the expression level of Mena was 70% higher than in vehicle-treated cells.
# as §2
# Paclitaxel treatment selects for high MENA expression in vitro and in vivo. The Examples so far indicate that increased MENA or MENA^INV expression levels are associated with reduced responses to paclitaxel. The effect of paclitaxel treatment on levels of MENA expression in cell populations in vitro and in vivo was examined. First, endogenous MENA expression by Western Blot in 5 breast cancer cell lines that were exposed to 100 nM of paclitaxel or a vehicle control were analyzed (FIG. 33A).
# [7] = system: SKBr3 cells; test: Wound closure assay, SKBr3 cells with Mena^11a-specific shRNA; format: cell-based, human; conditions: twenty-four hours
# Experimental: (§3) The Mena^11a knockdown procedure employed shRNAs was based on 97-mer oligos (Invitrogen) comprising the shRNAs amplified by PCR with primers having EcoRI/XhoI sites, and were cloned into the pMSCV-miR30-MLS-GFP vector (gift from Michael Hemann, Koch Institute, MIT). Oligo sequences are:
# (§4) Mena^11a-specific depletion enhances cell migration and membrane protrusion. Previously, the effects of Mena^11a on cancer cell motility were evaluated in assays utilizing ectopic expression. To study the role of endogenously expressed Mena^11a on cancer cell motility, we used Mena^11a-KD cells, including T47D and SKBr3 human breast cancer cells which have >80% reduction of Mena^11a protein levels (FIG. 15A-B, 15E-F), in wound closure assays. […] T47D cells yielded similar results (FIG. 15C-D), although complete closure of the control T47D cells took longer than with SKBr3 cells. […] Therefore, depletion of the Mena^11a isoform from cells that normally express both Mena and Mena^11a increased cell migration rates.
# [8] = system: T47D cells; test: Wound closure assay and morphology (circularity), T47D cells with Mena^11a-specific shRNA; format: cell-based, human; conditions: for percent of cell free region filled (gap closure): 48 hours; for circularity of cells at the free edge of the monolayer: perfect circularity=1
# Source text: as §3
# Signal intensities from antibodies or rhodamine-labeled barbed ends along the cell edge were quantified with a contour-based ImageJ macro. We measured the distribution of signal along the membrane plotted as a function of distance from the cell edge (mean±SEM) and the sum of the intensities in the first 0.65 μm from the cell edge. Circularity measures were performed by manually tracing the cells at the free edge of the epithelial monolayer, and by using the circularity plugin built in ImageJ. In this analysis, a circularity value of 1 indicates a perfect circle while, as the value approaches 0, it indicates an elongated cell shape. For quantitative imaging, we used the same hardware configuration and exposure time for all cell lines analyzed in the same experiment. […] Extracted pixel intensities were exported to Microsoft Excel for analysis and Graph-Pad Prism for graphing.
# as §4
# Consistent with changes in migration, we observed that the morphology of T47D Mena^11a-KD cells differed from control-KD cells, specifically at the free edge of the monolayer (FIG. 151).
molecule,measurement,setting,value
COc1cc2c(cc1OC)CN(CCc1ccc(-n3nnc(-c4cc(OC)c(OC)cc4NC(=O)c4cc(=O)c5ccccc5o4)n3)cc1)CC2 [HM30181],fraction of viable cells on co-treatment with 100 nM paclitaxel,"[1]; 231-Control cells, HM30181 100 nM",negligibly affected
same,paclitaxel efficacy on co-treatment with MDR1 inhibitor,"[1]; 231-MENA^INV cells, 100 nM paclitaxel",did not increase paclitaxel efficacy
N.N.[Cl][Pt][Cl] [Cisplatin],effect of Mena or Mena^INV expression on fraction of viable cells / response to drug,[1],neither GFP-Mena nor GFP-MenaINV expression affected the fraction of viable MDA-MB-231 cells differently than the GFP controls
same,effect of Mena or Mena^INV expression on fraction of viable cells / response to drug,[1]; listed as cisplatin,neither MENA nor MENA^INV expression affected the response
COc1cccc2c1C(=O)c1c(O)c3c(c(O)c1C2=O)C[C@@](O)(C(=O)CO)C[C@@H]3O[C@H]1C[C@H](N)[C@H](O)[C@H](C)O1 [Doxorubicin],growth of control tumors compared to vehicle,[2]; GFP (Control) tumors,significantly decreased growth of control tumors
same,growth / response of Mena or Mena^INV tumors,[2]; Mena or Mena^INV expressing tumors,decreased response
same,effect of Mena or Mena^INV expression on fraction of viable cells / response to drug,[1],neither MENA nor MENA^INV expression affected the response
O=C(NOC[C@H](O)CO)c1ccc(F)c(F)c1Nc1ccc(I)cc1F [PD0325901],"stable MTs relative to dynamic MTs, both drugs simultaneously",[3]; paclitaxel plus MEKi,induced increases in stable MTs relative to dynamic MTs
same,"stable MTs relative to dynamic MTs, either drug alone",[3]; single drug,had no effect
same,paclitaxel-induced ERK phosphorylation,[4],blocked
same,concentrations needed to obtain high levels of cell death relative to 231-Control cells,[5]; 231-MENA and 231-MENA^INV cells,higher concentrations of each drug were needed
same,combination of paclitaxel and MEKi in proliferation assay (cell death),"[5]; all cell lines, 72 hours, both drugs simultaneously",significant additive effects
CC(=O)O[C@@]12CO[C@@H]1C[C@H](O)[C@@]1(C)C(=O)[C@H](O)C3=C(C)[C@@H](OC(=O)[C@H](O)[C@@H](NC(=O)OC(C)(C)C)c4ccccc4)C[C@@](O)([C@@H](OC(=O)c4ccccc4)[C@H]21)C3(C)C [docetaxel],FACS analysis of GFP expression levels after taxane treatment,[6],"selected for cells expressing higher levels of GFP-MENA or GFP-MENA^INV, but not of GFP"
B1,percent of initially cell-free region filled (gap closure),[7],49.03% ±4.2
same,percent of cell free region filled (gap closure),[8],50.41% ±3.7
same,circularity of cells at the free edge of the monolayer,[8],0.683
B2,percent of initially cell-free region filled (gap closure),[7],74.76% ±4.8
same,percent of cell free region filled (gap closure),[8],78.39% ±4.8
same,circularity of cells at the free edge of the monolayer,[8],0.614
B3,percent of initially cell-free region filled (gap closure),[7],55.24% ±1.8
same,percent of cell free region filled (gap closure),[8],40.38% ±4.2
same,circularity of cells at the free edge of the monolayer,[8],0.640
B4,percent of initially cell-free region filled (gap closure),[7],77.84% ±3.6
same,percent of cell free region filled (gap closure),[8],70.20% ±8.8
same,circularity of cells at the free edge of the monolayer,[8],0.509
